Numbered stars: 1 amine (or outer) side, 2 acyl side, 3 side chain; on linkers, the order of the positions; unused ones are H or OH. Bridge positions count the residues as written; N and C are the ends. Square brackets hold non-standard residues; d marks the D form. Peptide text beside a SMILES is read from it. X6 = O=C(O)CC[C@H](CC(=O)[C@H](Cc1cnc[nH]1)N[*:1])C(=O)[*:2]; X8 = C[C@@H](C(=O)[*:2])N(CCC(F)(F)F)[*:1]; X3 = CCCC[C@@H](C(=O)[*:2])N(CCO)[*:1]; X5 = CCCC[C@@H](C(=O)[*:2])N(CC)[*:1]; X7 = COCCN([C@@H](C)C(=O)[*:2])[*:1]; X1 = O=C(CN(CCC(F)(F)F)[*:1])[*:2]; Hyp = O=C(O)[C@@H]1C[C@@H](O)CN1; Gly(N-CH2CH2OH) = O=C(O)CNCCO; NMeNle = CCCC[C@H](NC)C(=O)O; NEtAla = CCN[C@@H](C)C(=O)O; NMeA = CN[C@@H](C)C(=O)O; Dab = NCC[C@H](N)C(=O)O; Nme = COCCNCC(=O)O
Biological target: T1, PD-1-Ig binding to PD-L1-TVMV-His (PD-L1-His) (Homo sapiens, UniProt Q9NZQ7)
T1 construct: hPDL1(19-239)-TVMV-His; made in house; host or cells: HEK293T
Assay: PD-1/PD-L1 Homogenous Time-Resolved Fluorescence (HTRF) binding assay
Settings: range class; PD-L1-His 10 nM, PD-1-Ig 20 nM
Source text: Methods for Testing the Ability of Macrocyclic Peptides to Compete for the Binding of Pd-1 to Pd-L1 Using Homogenous Time-Resolved Fluorescence (HTRF) Binding Assays
The ability of the macrocyclic peptides of the present disclosure to bind to PD-L1 was investigated using a PD-1/PD-L1 Homogenous Time-Resolved Fluorescence (HTRF) binding assay.
Homogenous Time-Resolved Fluorescence (HTRF) Assays of Binding of Soluble PD-1 to Soluble PD-L1. Soluble PD-1 and soluble PD-L1 refers to proteins with carboxyl-end truncations that remove the transmembrane-spanning regions and are fused to heterologous sequences, specifically the Fc portion of the human immunoglobuling G sequence (Ig) or the hexahistidine epitope tag (His). All binding studies were performed in an HTRF assay buffer consisting of dPBS supplemented with 0.1% (w/v) bovine serum albumin and 0.05% (v/v) Tween-20. For the PD-1-Ig/PD-L1-His binding assay, inhibitors were pre-incubated with PD-L1-His (10 nM final) for 15 m in 4 μl of assay buffer, followed by addition of PD-1-Ig (20 nM final) in 1 μl of assay buffer and further incubation for 15 m. PD-L1 fusion proteins from either human, cynomologous macaques, mouse, or other species were used. HTRF detection was achieved using europium crypate-labeled anti-Ig monoclonal antibody (1 nM final) and allophycocyanin (APC) labeled anti-His monoclonal antibody (20 nM final). Antibodies were diluted in HTRF detection buffer and 5 μl was dispensed on top of binding reaction. The reaction was allowed to equilibrate for 30 minutes and signal (665 nm/620 nm ratio) was obtained using an EnVision fluorometer. Additional binding assays were established between PD-1-Ig/PD-L2-His (20 and 5 nM, respectively), CD80-His/PD-L1-Ig (100 and 10 nM, respectively) and CD80-His/CTLA4-Ig (10 and 5 nM, respectively). Binding/competition studies between biotinylated Compound No. 71 and human PD-L1-His were performed as follows. Macrocyclic peptide inhibitors were pre-incubated with PD-L1-His (10 nM final) for 60 minutes in 4 μl of assay buffer followed by addition of biotinylated Compound No. 71 (0.5 nM final) in 1 μl of assay buffer. Binding was allowed to equilibrate for 30 minutes followed by addition of europium crypated labeled Streptavidin (2.5 pM final) and APC-labeled anti-His (20 nM final) in 5 μl of HTRF buffer. The reaction was allowed to equilibrate for 30 m and signal (665 nm/620 nm ratio) was obtained using an EnVision fluorometer.
Recombinant Proteins. Carboxyl-truncated human PD-1 (amino acids 25-167) with a C-terminal human Ig epitope tag [hPD-1 (25-167)-3S-IG] and human PD-L1 (amino acids 18-239) with a C-terminal His epitope tag [hPD-L1(19-239)-tobacco vein mottling virus protease cleavage site (TVMV)-His] were expressed in HEK293T cells and purified sequentially by recombinant Protein A affinity chromatography and size exclusion chromatography. Human PD-L2-His (Sino Biologicals), CD80-His (Sino Biologicals), CTLA4-Ig (RnD Systems) were all obtained through commercial sources.
Ranges are as follows: A=0.10-10 μM; B=0.01-0.099 μM; C=0.005-0.0099 μM.

T1 sequence (Q9NZQ7 with tags, fused parts or gaps): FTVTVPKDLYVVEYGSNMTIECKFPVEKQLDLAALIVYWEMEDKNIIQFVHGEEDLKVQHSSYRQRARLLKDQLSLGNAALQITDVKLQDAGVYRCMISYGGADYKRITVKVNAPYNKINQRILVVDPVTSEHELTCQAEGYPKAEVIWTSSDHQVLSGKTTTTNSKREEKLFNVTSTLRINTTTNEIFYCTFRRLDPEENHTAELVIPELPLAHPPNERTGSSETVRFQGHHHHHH

| Structure (SMILES) | IC50 [nM] |
| --- | --- |
| CCCC[C@H]1C(=O)N(C)[C@@H](CCCC)C(=O)N[C@@H](CC(C)C)C(=O)N[C@H](C(=O)NCC(N)=O)CSCC(=O)N[C@@H](Cc2ccc(O)cc2)C(=O)N(C)[C@@H](C)C(=O)N[C@@H](CC(N)=O)C(=O)N(CCOC)CC(=O)N[C@@H](Cc2cnc[nH]2)C(=O)N[C@@H](CCC(=O)O)C(=O)N2C[C@H](O)C[C@H]2C(=O)N[C@@H](Cc2c[nH]c3ccccc23)C(=O)N[C@@H](CCN)C(=O)N[C@@H](Cc2c[nH]c3ccccc23)C(=O)N1C [Example 3009] ({CH2CO}-Y[NMeA]N[Nme]HE[Hyp]W[Dab]W[NMeNle][NMeNle]LCG-NH2; thioether N-14) | 10 to 99 |
| CCCC[C@H]1C(=O)N(C)[C@@H](CCCC)C(=O)N[C@@H](CC(C)C)C(=O)N[C@H](C(=O)NCC(N)=O)CSCC(=O)N[C@@H](Cc2ccc(O)cc2)C(=O)N(CC(=O)O)CC(=O)N[C@@H](CC(N)=O)C(=O)N2CCC[C@H]2C(=O)N[C@@H](Cc2cnc[nH]2)C(=O)N[C@@H](CCC(=O)O)C(=O)N2C[C@H](O)C[C@H]2C(=O)N[C@@H](Cc2c[nH]c3ccccc23)C(=O)N[C@@H](CCN)C(=O)N[C@@H](Cc2c[nH]c3ccccc23)C(=O)N1C [Example 3044] | 10 to 99 |
| CCCC[C@H]1C(=O)N(C)[C@@H](CCCC)C(=O)N[C@@H](CC(C)C)C(=O)N[C@H](C(=O)NCC(N)=O)CSCC(=O)N[C@@H](Cc2ccc(O)cc2)C(=O)N(CC)[C@@H](C)C(=O)N[C@@H](CC(N)=O)C(=O)N2CCC[C@H]2C(=O)N[C@@H](Cc2cnc[nH]2)C(=O)C[C@@H](CCC(=O)O)C(=O)N2C[C@H](O)C[C@H]2C(=O)N[C@@H](Cc2c[nH]c3ccccc23)C(=O)N[C@@H](CCN)C(=O)N[C@@H](Cc2c[nH]c3ccccc23)C(=O)N1C [Example 3017] ({CH2CO}-Y[NEtAla]NP[X6][Hyp]W[Dab]W[NMeNle][NMeNle]LCG-NH2; thioether N-13) | 5 to 9.9 |
| CCCC[C@H]1C(=O)N(C)[C@@H](CCCC)C(=O)N[C@@H](CC(C)C)C(=O)N[C@H](C(=O)NCC(N)=O)CSCC(=O)N[C@@H](Cc2ccc(O)cc2)C(=O)N(C)[C@@H](C)C(=O)N[C@@H](CC(N)=O)C(=O)N2CCC[C@H]2C(=O)N[C@@H](Cc2cnc[nH]2)C(=O)N[C@@H](CCC(=O)O)C(=O)N(CCO)CC(=O)N[C@@H](Cc2c[nH]c3ccccc23)C(=O)N[C@@H](CCN)C(=O)N[C@@H](Cc2c[nH]c3ccccc23)C(=O)N1C [Example 3012] ({CH2CO}-Y[NMeA]NPHE[Gly(N-CH2CH2OH)]W[Dab]W[NMeNle][NMeNle]LCG-NH2; thioether N-14) | 10 to 99 |
| CCCC[C@H]1C(=O)N[C@@H](CC(C)C)C(=O)N[C@H](C(=O)NCC(N)=O)CSCC(=O)N[C@@H](Cc2ccc(O)cc2)C(=O)N(C)[C@@H](C)C(=O)N[C@@H](CC(N)=O)C(=O)N2CCC[C@H]2C(=O)N[C@@H](Cc2cnc[nH]2)C(=O)N[C@@H](CCC(=O)O)C(=O)N2C[C@H](O)C[C@H]2C(=O)N[C@@H](Cc2c[nH]c3ccccc23)C(=O)N[C@@H](CCN)C(=O)N[C@@H](Cc2c[nH]c3ccccc23)C(=O)N(CC)[C@@H](CCCC)C(=O)N1C [Example 3023] ({CH2CO}-Y[NMeA]NPHE[Hyp]W[Dab]W[X5][NMeNle]LCG-NH2; thioether N-14) | 10 to 99 |
| CCCC[C@H]1C(=O)N[C@@H](CC(C)C)C(=O)N[C@H](C(=O)NCC(N)=O)CSCC(=O)N[C@@H](Cc2ccc(O)cc2)C(=O)N(C)[C@@H](C)C(=O)N[C@@H](CC(N)=O)C(=O)N2CCC[C@H]2C(=O)N[C@@H](Cc2cnc[nH]2)C(=O)N[C@@H](CCC(=O)O)C(=O)N2C[C@H](O)C[C@H]2C(=O)N[C@@H](Cc2c[nH]c3ccccc23)C(=O)N[C@@H](CCN)C(=O)N[C@@H](Cc2c[nH]c3ccccc23)C(=O)N(CCOC)[C@@H](C)C(=O)N1C [Example 3025] ({CH2CO}-Y[NMeA]NPHE[Hyp]W[Dab]W[X7][NMeNle]LCG-NH2; thioether N-14) | 10 to 99 |
| CCCC[C@H]1C(=O)N[C@@H](CC(C)C)C(=O)N[C@H](C(=O)NCC(N)=O)CSCC(=O)N[C@@H](Cc2ccc(O)cc2)C(=O)N(C)[C@@H](C)C(=O)N[C@@H](CC(N)=O)C(=O)N2CCC[C@H]2C(=O)N[C@@H](Cc2cnc[nH]2)C(=O)N[C@@H](CCC(=O)O)C(=O)N2C[C@H](O)C[C@H]2C(=O)N[C@@H](Cc2c[nH]c3ccccc23)C(=O)N[C@@H](CCN)C(=O)N[C@@H](Cc2c[nH]c3ccccc23)C(=O)N(CCC(F)(F)F)[C@@H](C)C(=O)N1C [Example 3041] ({CH2CO}-Y[NMeA]NPHE[Hyp]W[Dab]W[X8][NMeNle]LCG-NH2; thioether N-14) | 10 to 99 |
| CCCC[C@H]1C(=O)N(C)[C@@H](CCCC)C(=O)N[C@@H](CC(C)C)C(=O)N[C@H](C(=O)NCC(N)=O)CSCC(=O)N[C@@H](Cc2ccc(O)cc2)C(=O)N(C)[C@@H](C)C(=O)N[C@@H](CC(N)=O)C(=O)N(CCC(F)(F)F)CC(=O)N[C@@H](Cc2cnc[nH]2)C(=O)N[C@@H](CCC(=O)O)C(=O)N2C[C@H](O)C[C@H]2C(=O)N[C@@H](Cc2c[nH]c3ccccc23)C(=O)N[C@@H](CCN)C(=O)N[C@@H](Cc2c[nH]c3ccccc23)C(=O)N1C [Example 3010] ({CH2CO}-Y[NMeA]N[X1]HE[Hyp]W[Dab]W[NMeNle][NMeNle]LCG-NH2; thioether N-14) | 10 to 99 |
| CCCC[C@H]1C(=O)N[C@@H](CC(C)C)C(=O)N[C@H](C(=O)NCC(N)=O)CSCC(=O)N[C@@H](Cc2ccc(O)cc2)C(=O)N(C)[C@@H](C)C(=O)N[C@@H](CC(N)=O)C(=O)N2CCC[C@H]2C(=O)N[C@@H](Cc2cnc[nH]2)C(=O)N[C@@H](CCC(=O)O)C(=O)N2C[C@H](O)C[C@H]2C(=O)N[C@@H](Cc2c[nH]c3ccccc23)C(=O)N[C@@H](CCN)C(=O)N[C@@H](Cc2c[nH]c3ccccc23)C(=O)N(CCO)[C@@H](CCCC)C(=O)N1C [Example 3030] ({CH2CO}-Y[NMeA]NPHE[Hyp]W[Dab]W[X3][NMeNle]LCG-NH2; thioether N-14) | 10 to 99 |
| CCCC[C@H]1C(=O)N[C@@H](CC(C)C)C(=O)N[C@H](C(=O)NCC(N)=O)CSCC(=O)N[C@@H](Cc2ccc(O)cc2)C(=O)N(C)[C@@H](C)C(=O)N[C@@H](CC(N)=O)C(=O)N2CCC[C@H]2C(=O)N[C@@H](Cc2cnc[nH]2)C(=O)N[C@@H](CCC(=O)O)C(=O)N2C[C@H](O)C[C@H]2C(=O)N[C@@H](Cc2c[nH]c3ccccc23)C(=O)N[C@@H](CCN)C(=O)N[C@@H](Cc2c[nH]c3ccccc23)C(=O)N(CC(=O)O)[C@@H](C)C(=O)N1C [Example 3028] | 100 to 10000 |
| CCCC[C@H]1C(=O)N(CC)[C@@H](CCCC)C(=O)N[C@@H](CC(C)C)C(=O)N[C@H](C(=O)NCC(N)=O)CSCC(=O)N[C@@H](Cc2ccc(O)cc2)C(=O)N(C)[C@@H](C)C(=O)N[C@@H](CC(N)=O)C(=O)N2CCC[C@H]2C(=O)N[C@@H](Cc2cnc[nH]2)C(=O)N[C@@H](CCC(=O)O)C(=O)N2C[C@H](O)C[C@H]2C(=O)N[C@@H](Cc2c[nH]c3ccccc23)C(=O)N[C@@H](CCN)C(=O)N[C@@H](Cc2c[nH]c3ccccc23)C(=O)N1C [Example 3021] ({CH2CO}-Y[NMeA]NPHE[Hyp]W[Dab]W[NMeNle][X5]LCG-NH2; thioether N-14) | 5 to 9.9 |
| CCCC[C@H]1C(=O)N(C)[C@@H](CCCC)C(=O)N[C@@H](CC(C)C)C(=O)N[C@H](C(=O)NCC(N)=O)CSCC(=O)N[C@@H](Cc2ccc(O)cc2)C(=O)N(C)[C@@H](C)C(=O)N[C@@H](CC(N)=O)C(=O)N2CCC[C@H]2C(=O)N[C@@H](Cc2c[nH]cn2)C(=O)N[C@@H](CCC(=O)O)C(=O)N(CC(=O)O)CC(=O)N[C@@H](Cc2c[nH]c3ccccc23)C(=O)N[C@@H](CCN)C(=O)N[C@@H](Cc2csc3ccccc23)C(=O)N1C [Example 5001] | 5 to 9.9 |
